Results taken from ChEMBL document CHEMBL5653631, “A Potent and Selective ULK1 Inhibitor Suppresses Autophagy and Sensitizes Cancer Cells to Nutrient Stress” (iScience, 2018).
Each block holds one compound with its values, some of them ahead of it.

Tests used:
[1] = biological target: Serine/threonine-protein kinase MARK1 (Homo sapiens) (UniProt Q9P0L2); assay: Inhibition of human recombinant MARK1 at 500 nM in presence of ATP by radiometric assay relative to control
[2] = biological target: T1, Testis-specific serine/threonine-protein kinase 1 (Homo sapiens) (UniProt Q9BXA7); assay: Inhibition of human recombinant TSSK1 at 500 nM in presence of ATP by radiometric assay relative to control
T1 sequence (whole entry): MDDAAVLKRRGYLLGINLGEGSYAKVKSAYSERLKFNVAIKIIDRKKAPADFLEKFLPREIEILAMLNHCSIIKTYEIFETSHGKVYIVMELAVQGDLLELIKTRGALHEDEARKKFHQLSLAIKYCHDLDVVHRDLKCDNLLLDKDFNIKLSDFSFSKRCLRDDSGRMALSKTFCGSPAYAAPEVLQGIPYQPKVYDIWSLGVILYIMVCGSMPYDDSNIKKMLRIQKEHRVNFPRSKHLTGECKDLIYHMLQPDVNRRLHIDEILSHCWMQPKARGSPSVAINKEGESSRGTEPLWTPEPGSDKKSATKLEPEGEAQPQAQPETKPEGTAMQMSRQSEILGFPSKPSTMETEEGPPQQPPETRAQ

[3] = biological target: T2, Calcium/calmodulin-dependent protein kinase type IV (Homo sapiens) (UniProt Q16566); assay: Inhibition of human recombinant CaMK4 at 500 nM related to control ULK1
T2 sequence (whole entry): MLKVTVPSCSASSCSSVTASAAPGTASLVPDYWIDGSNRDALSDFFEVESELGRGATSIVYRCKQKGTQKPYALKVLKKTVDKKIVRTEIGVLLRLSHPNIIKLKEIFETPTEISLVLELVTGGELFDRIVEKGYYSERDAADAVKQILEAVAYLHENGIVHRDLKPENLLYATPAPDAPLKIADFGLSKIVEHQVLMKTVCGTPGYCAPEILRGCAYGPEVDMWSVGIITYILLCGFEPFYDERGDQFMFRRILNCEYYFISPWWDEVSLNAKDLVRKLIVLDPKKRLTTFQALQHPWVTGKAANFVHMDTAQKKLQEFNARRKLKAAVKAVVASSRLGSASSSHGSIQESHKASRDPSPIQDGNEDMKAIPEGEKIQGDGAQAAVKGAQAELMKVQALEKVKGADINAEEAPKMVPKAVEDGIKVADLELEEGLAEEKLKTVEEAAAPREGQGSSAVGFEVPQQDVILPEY

[4] = biological target: Death-associated protein kinase 3 (Homo sapiens) (UniProt O43293); assay: Inhibition of human recombinant DAPK3 at 500 nM related to control ULK1
Sequence of Death-associated protein kinase 3 (Homo sapiens) (O43293 whole entry, looked up): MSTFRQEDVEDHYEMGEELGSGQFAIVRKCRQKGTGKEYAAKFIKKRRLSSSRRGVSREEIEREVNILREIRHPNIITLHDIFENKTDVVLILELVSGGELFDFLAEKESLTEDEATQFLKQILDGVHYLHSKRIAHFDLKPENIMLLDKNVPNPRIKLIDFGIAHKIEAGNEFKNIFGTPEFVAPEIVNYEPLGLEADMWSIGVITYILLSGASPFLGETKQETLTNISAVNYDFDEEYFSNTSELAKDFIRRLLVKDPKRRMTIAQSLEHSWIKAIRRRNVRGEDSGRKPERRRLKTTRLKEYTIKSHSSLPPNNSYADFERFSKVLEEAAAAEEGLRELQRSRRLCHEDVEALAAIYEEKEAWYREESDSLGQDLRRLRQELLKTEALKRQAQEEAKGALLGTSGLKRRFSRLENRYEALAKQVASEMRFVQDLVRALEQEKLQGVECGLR

[5] = biological target: T3, Mitogen-activated protein kinase kinase kinase 7 (Homo sapiens) (UniProt O43318); assay: Inhibition of human recombinant TAK1 at 15 nM in presence of ATP by radiometric assay relative to control
T3 sequence (whole entry): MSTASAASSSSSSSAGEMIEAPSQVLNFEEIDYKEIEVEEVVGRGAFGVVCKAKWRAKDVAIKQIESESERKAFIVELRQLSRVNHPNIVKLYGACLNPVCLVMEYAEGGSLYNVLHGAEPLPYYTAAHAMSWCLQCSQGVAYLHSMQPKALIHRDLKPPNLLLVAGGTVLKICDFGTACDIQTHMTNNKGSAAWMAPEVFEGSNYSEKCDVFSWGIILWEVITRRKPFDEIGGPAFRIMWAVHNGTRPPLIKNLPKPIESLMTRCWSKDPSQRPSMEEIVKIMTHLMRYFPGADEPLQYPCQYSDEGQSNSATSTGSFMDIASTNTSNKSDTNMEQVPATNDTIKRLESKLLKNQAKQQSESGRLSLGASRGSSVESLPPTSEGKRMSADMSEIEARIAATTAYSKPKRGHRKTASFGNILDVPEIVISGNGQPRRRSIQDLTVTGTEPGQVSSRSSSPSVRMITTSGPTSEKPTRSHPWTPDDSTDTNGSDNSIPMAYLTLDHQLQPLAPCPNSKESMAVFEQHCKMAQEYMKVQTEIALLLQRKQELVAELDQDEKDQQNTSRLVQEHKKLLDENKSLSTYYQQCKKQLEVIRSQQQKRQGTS

[6] = biological target: Wee1-like protein kinase 2 (Homo sapiens) (UniProt P0C1S8); assay: Inhibition of human recombinant Wee1B at 15 nM in presence of ATP by radiometric assay relative to control
Sequence of Wee1-like protein kinase 2 (Homo sapiens) (P0C1S8 whole entry, looked up): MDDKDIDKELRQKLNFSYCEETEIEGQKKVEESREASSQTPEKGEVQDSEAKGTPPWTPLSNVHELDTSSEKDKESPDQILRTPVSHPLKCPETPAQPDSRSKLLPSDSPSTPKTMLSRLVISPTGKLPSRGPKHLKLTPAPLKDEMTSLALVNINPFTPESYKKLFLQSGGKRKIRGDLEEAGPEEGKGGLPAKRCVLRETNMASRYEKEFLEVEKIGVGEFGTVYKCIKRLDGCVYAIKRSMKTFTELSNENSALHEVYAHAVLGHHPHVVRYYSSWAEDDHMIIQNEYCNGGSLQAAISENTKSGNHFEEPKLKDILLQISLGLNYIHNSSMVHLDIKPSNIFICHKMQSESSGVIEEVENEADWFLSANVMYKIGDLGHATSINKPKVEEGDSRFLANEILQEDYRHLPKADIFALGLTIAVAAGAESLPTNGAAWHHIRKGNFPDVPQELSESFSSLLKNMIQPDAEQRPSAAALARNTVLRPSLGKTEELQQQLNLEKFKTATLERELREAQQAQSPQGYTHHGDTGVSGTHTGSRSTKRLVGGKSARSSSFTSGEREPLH

[7] = biological target: Tyrosine-protein kinase BTK (Homo sapiens) (UniProt Q06187); assay: Inhibition of human recombinant BTK at 40 nM in presence of ATP by radiometric assay relative to control
Sequence of Tyrosine-protein kinase BTK (Homo sapiens) (Q06187 whole entry): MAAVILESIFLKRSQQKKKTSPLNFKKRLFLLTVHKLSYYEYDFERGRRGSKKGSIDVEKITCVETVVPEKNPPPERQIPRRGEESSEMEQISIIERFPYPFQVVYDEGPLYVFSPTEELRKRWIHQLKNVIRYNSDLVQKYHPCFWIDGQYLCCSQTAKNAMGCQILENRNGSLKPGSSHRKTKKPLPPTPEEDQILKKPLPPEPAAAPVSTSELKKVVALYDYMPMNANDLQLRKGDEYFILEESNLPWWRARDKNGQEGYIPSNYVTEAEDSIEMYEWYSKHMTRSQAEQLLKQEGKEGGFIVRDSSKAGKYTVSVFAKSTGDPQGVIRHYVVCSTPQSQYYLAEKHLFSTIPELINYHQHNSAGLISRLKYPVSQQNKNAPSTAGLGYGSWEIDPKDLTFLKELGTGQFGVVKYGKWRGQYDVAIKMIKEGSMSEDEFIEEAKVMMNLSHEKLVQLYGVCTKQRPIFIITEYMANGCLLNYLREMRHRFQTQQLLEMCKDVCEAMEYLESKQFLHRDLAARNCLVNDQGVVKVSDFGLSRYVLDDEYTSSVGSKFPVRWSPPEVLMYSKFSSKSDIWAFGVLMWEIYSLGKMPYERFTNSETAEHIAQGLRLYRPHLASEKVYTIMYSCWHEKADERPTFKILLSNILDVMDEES

[8] = biological target: T4, Serine/threonine-protein kinase 17A (Homo sapiens) (UniProt Q9UEE5); assay: Inhibition of human recombinant DRAK1 at 40 nM in presence of ATP by radiometric assay relative to control
T4 sequence (whole entry): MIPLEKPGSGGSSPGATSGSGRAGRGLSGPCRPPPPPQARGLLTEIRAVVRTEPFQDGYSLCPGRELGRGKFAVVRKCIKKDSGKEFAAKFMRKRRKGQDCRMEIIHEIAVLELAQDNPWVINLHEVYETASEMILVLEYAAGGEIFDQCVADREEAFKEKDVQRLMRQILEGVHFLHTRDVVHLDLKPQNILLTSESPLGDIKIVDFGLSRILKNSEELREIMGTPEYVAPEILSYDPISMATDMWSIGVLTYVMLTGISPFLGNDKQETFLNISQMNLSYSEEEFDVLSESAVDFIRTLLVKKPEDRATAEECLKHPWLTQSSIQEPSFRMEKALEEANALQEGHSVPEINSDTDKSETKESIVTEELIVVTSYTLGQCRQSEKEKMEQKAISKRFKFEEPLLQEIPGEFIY

[9] = biological target: Serine/threonine-protein kinase 24 (Homo sapiens) (UniProt Q9Y6E0); assay: Inhibition of human recombinant MST3 at 40 nM in presence of ATP by radiometric assay relative to control
Sequence of Serine/threonine-protein kinase 24 (Homo sapiens) (Q9Y6E0 whole entry, looked up): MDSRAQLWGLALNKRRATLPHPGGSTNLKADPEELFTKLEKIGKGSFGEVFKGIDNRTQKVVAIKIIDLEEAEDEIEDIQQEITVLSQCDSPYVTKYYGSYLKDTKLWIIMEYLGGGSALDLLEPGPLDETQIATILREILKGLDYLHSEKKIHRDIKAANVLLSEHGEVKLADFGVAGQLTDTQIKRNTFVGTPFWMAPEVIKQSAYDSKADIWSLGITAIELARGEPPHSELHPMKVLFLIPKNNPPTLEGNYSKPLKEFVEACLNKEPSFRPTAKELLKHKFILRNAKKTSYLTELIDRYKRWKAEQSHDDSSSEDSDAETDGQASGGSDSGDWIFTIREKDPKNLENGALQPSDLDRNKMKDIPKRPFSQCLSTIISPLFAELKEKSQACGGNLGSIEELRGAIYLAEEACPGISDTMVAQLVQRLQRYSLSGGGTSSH

Sequence of Serine/threonine-protein kinase MARK1 (Homo sapiens) (Q9P0L2 whole entry, looked up): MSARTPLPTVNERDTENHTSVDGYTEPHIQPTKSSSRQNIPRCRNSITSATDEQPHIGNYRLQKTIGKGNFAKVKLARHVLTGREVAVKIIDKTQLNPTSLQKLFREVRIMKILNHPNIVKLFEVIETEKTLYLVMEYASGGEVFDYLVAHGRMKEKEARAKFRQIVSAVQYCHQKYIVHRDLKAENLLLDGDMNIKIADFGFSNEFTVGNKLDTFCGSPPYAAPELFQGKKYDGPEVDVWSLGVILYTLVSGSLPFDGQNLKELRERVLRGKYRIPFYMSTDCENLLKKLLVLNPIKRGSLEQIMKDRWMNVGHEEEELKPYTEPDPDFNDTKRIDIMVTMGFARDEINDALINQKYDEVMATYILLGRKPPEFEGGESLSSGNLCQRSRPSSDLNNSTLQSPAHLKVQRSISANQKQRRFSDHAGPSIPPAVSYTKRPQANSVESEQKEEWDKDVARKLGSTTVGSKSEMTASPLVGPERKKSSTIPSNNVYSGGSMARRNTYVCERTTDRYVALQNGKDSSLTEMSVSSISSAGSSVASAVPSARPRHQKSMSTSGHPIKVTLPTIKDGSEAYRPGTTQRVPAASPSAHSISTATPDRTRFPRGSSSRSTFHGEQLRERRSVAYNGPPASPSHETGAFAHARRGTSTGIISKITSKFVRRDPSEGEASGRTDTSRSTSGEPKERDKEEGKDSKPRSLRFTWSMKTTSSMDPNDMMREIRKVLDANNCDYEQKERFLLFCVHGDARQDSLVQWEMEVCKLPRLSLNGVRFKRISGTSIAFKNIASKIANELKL

inhibition [1]: 54%
inhibition [2]: 0%
fold change (FC) [3]: 0
Structure (SMILES): CNC(=O)c1ccccc1Oc1nc(Nc2cc(OC)c(OC)c(OC)c2)ncc1Br
fold change (FC) [4]: 0.14

inhibition [5]: 1%
inhibition [6]: 11%
Structure (SMILES): CC(C)[C@H](NC(=O)c1cc(-c2cnn3cc(-c4ccc(OCCN5CCCCC5)cc4)cnc23)cs1)C(F)(F)F

inhibition [7]: 0%
inhibition [8]: 78%
inhibition [9]: 20%
Structure (SMILES): O=C(N[C@@H](C1CC1)C(F)(F)F)c1cc(-c2cnn3cc(-c4ccc(F)cc4)cnc23)cs1
